These results are taken from patent US20230339866A1, “Quinazoline compounds and the use thereof in the treatment of cancer” (TROBIO THERAPEUTICS PTY LTD, priority 2020, published 2023).

The test system of one data set is A549 (NSCLC). The data set is described as follows: Anti-proliferative activity (Cell-Titre luminescence) against A549 non-small cell lung cancer cells. In kind it is cell-based. The settings on record: Homo sapiens, A549, 72 h, 72 h exposure, Cell-Titre luminescent reagent. Summed up:
(§1)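 Cells grown 24 h at 37 °C, 5% CO2, then exposed 72 h to compound at 30, 10, 3, 1, 0.3 and 0.1 μM. Viability by Cell-Titre luminescence (30 min), normalised to vehicle; EC50 from variable-slope sigmoidal nonlinear regression.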

The test system of data set [1] is SK-N-SH neuroblastoma cells. The data set is described as follows: Anti-proliferative activity (MTS assay) against SK-N-SH neuroblastoma cells. Type of data set: cell-based. The following applies: Homo sapiens, SK-N-SH, 72 h. On the procedure: The ability of compounds of the disclosure to inhibit the proliferation of SK-N-SH neuroblastoma cells was also assessed. […] Cell viability was normalised to control (vehicle alone) and dose response curves and IC50 values (Table 4) were determined using Graph Pad Prism 6.
For orientation: Tetrazolium dyes change colour on reduction, which living cells bring about.

The next data set addresses Tpm3.1 (Homo sapiens, UniProt P06753). The data set can be described thus: Circular dichroism spectroscopy, thermal unfolding of Tpm3.1 peptides. In kind it is binding. Set-up: N-terminus (residues 2-80 with an initial Ala-Gly dipeptide to mimic N-terminal acetylation) of Tpm3.1; Peptides corresponding to the C-terminus (residues 139-248) and N-terminus; made in house. The following applies: test compound 100 μM, peptide 20 μM, CD at 222 nm. Here is the method: The interactions of compounds 11, 13, 32 and 92 with the N-terminus and overlap region of Tpm3.1 were measured using circular dichroism (CD) spectroscopy (see FIG. 1). Peptides corresponding to the C-terminus (residues 139-248) and N-terminus (residues 2-80 with an initial Ala-Gly dipeptide to mimic N-terminal acetylation) of Tpm3.1 were prepared as described in the literature (Janco et al., 2019). CD spectra and thermal unfolding isotherms of N_82AA_Tpm3.1 and C_109AA_Tpm3.1 peptides were acquired on a Chirascan Plus CD Spectrometer (Applied Photophysics Limited, U.K.) in stoppered 0.5 mm cuvettes (48/Q/0.5; Starna Scientific Ltd.). Proteins were dialyzed O/N against 10 mM NaH2 PO4, 150 mM NaCl, 75 μM TCEP (added prior to experiment), 1% (v/v) acetonitrile pH 7 buffer. Final concentration of peptides was 20 μM. Tpm samples containing the test compound (100 μM) were incubated at 37° C. O/N. CD spectra were measured from 195 to 260 nm with a 1 nm step size and a […], taking 3 to 4 averages at 37° C. The thermal unfolding was carried at 222 nm over the range 20-85° C. at the rate of 1° C./min. Sample was cooled down to the initial temperature and heating procedure was repeated 2 to 3 times. To obtain information of the major thermal transitions from individual isotherms, data were further smoothed by the Savitzky-Golay method (5-point window), differentiated and then fitted to multiple Gaussian peaks as described previously (Janco et al., 2012) (FIG. 2).
In general terms: Circular dichroism is widely used to follow secondary structure.

Another data set concerns A2780 (ovarian). The data set is described as follows: Anti-proliferative activity (Cell-Titre luminescence) against A2780 ovarian cancer cells. The following applies: Homo sapiens, A2780, 72 h, 72 h exposure, Cell-Titre luminescent reagent. In kind it is cell-based. A digest of the protocol: as §1
For data set [2], the system named is A2780 ovarian cancer cells. The settings on record: read-out: IC50 values used for the dose matrix (cytotoxic agents); A2780, single agent, MTS 72 hours.
Description: The A2780 cell line was maintained as a monolayer in Dulbeccos Modified Eagles medium (DMEM) supplemented with 10% foetal bovine serum (FBS) and grown at 37° C. in a humidified atmosphere with 5% CO2. […] Each screening plate contained one 6×6 dose matrix for two drugs using two-fold dilution steps. […] Viability was measured after 72 hours using a standard MTS assay.
Synergistic drug interactions were determined for each pairwise drug combination by applying the Bliss-independence model that assumes independence of drug mechanisms.
The Bliss additivism model was used to calculate a predicted combined response C to two single agents with responses A and B (using GI values), as follows:
The final score for any combination was reported as the difference between the value predicted by the additive model and the experimentally observed value, normalised to 100. Using GI values the maximum possible synergy score is 100, with 0 indicating no synergy and negative indicating possible antagonism. Scores were also reported as a “Max synergy” score, which is the highest individual synergy score for each combination matrix, and a “Total synergy” score, which was obtained by summation of each individual synergy score for the matrix.

As a reminder, the IC50 is the concentration at which inhibition is half-maximal. `OCCNc1nc(NCc2ccc(C(F)(F)F)cc2)nc2ccccc12` [Compound 32, 2-((2-((4-(trifluoromethyl)benzyl)amino)quinazolin-4-yl)amino)ethan-1-ol]: the IC50 in the data set on A549 (NSCLC) was 4.63 µM; in data set [1] it was 4.09 µM; in the data set with A2780 (ovarian) it was 1.28 µM. In addition, the “Effect on melting profile of the Tpm3.1 N-terminal peptide construct” value (from here on “Effect on melting profile”) at Tpm3.1 was “alter the melting profile”. In addition, the “Effect on stability (melting profile) of the overlap complex formed by the N- and C-terminal peptides” value at Tpm3.1 was “increasing”. The “Effect on stability of the Tpm3.1 N-terminal peptide” value on Tpm3.1 is recorded as “decrease the stability”.
With `CN1CCN(CCNc2nc(-c3cc[nH]c3)nc3ccccc23)CC1` [Compound 13, N-(2-(4-methylpiperazin-1-yl)ethyl)-2-(1H-pyrrol-3-yl)quinazolin-4-amine], the IC50 in the data set on A549 (NSCLC) stood at 6.5 µM; in data set [1], 1.72 µM; in the data set with A2780 (ovarian) it was 5.65 µM. Also, on Tpm3.1, the “Effect on melting profile” value is on record as “alter the melting profile”. In addition, the “Effect on stability of the Tpm3.1 N-terminal peptide” value at Tpm3.1 is listed as “stabilizing effect”.
As for `CCC1=C[C@@H]2CN(C1)Cc1c([nH]c3ccccc13)[C@@](C(=O)OC)(c1cc3c(cc1OC)N(C)[C@H]1[C@@](O)(C(=O)OC)[C@H](OC(C)=O)[C@]4(CC)C=CCN5CC[C@]31[C@@H]54)C2` [vinorelbine, reference compound], the IC50 in data set [2] came out at 4 nM.
Take `CN1CCN(CCNc2nc(-c3ccsc3)nc3ccccc23)CC1` [Compound 11, N-(2-(4-methylpiperazin-1-yl)ethyl)-2-(thiophen-3-yl)quinazolin-4-amine]: the IC50 with A549 (NSCLC) was determined as 10.3 µM. This compound displayed an IC50 in data set [1] of 9.11 µM. Besides, on Tpm3.1, the “Effect on melting profile” value was “alter the melting profile”; the “Effect on stability (melting profile) of the overlap complex formed by the N- and C-terminal peptides” value is “decreasing”; the “Effect on stability of the Tpm3.1 N-terminal peptide” value is “decrease the stability”. Further, it took 6.43 µM to reach half-maximal inhibition with A2780 (ovarian) (IC50).
